This is an account of results in patent US20240410907A1, “FLUORESCENT ION INDICATORS AND THEIR APPLICATIONS” (AAT Bioquest, Inc., priority 2023, published 2024).

The nature of data set [1]: Sodium ion response, fluorescence intensity with 60 mM NaCl (Fmax) or without NaCl (F0). As to conditions: 2.5 μM, Tris-HCl buffer pH 7, 60 mM NaCl (Fmax) vs no NaCl (F0), FIG. 5. As to the method:
FIG. 5. Comparisons of Compound 8 and SBFI to sodium ion responses. SBFI (2.5 μM) and Compound 8 (2.5 μM) are added in Tris-HCl buffer (pH-7) with 60 mM NaCl (Fmax) or without NaCl (F0) and their fluorescence intensities are recorded. […] SBFI=Black column; Compound 8=Grey column.

Data set [2] in a line: Absorption spectra in TRIS buffer (pH 7.0) in the presence of 100 mM NaCl. It counts as physicochemical. As to conditions: 10 μM, TRIS buffer pH 7.0, 100 mM NaCl, FIG. 1. As for the experimental part: FIG. 1. The absorption spectral comparison of SBFI and Compound 8. SBFI (10 μM) and Compound 8 (10 μM) are dissolved in TRIS buffer (pH 7.0). The absorption spectra are recorded in the presence of 100 mM NaCl. […] A longer absorption wavelength minimizes the background caused by naturally occurring biological substances.

The nature of data set [3]: Excitation and fluorescence spectra in TRIS buffer (pH 7.0) in the presence of 100 mM NaCl. The conditions noted are these: 2.5 μM, TRIS buffer pH 7.0, 100 mM NaCl, FIG. 3. It counts as physicochemical. As for the experimental part:
FIG. 3. The spectral comparison of SBFI and Compound 8. SBFI (2.5 μM) and Compound 8 (2.5 μM) are dissolved in TRIS buffer (pH 7.0). The excitation and fluorescence spectra are recorded in the presence of 100 mM NaCl. […] The strong and sharp fluorescence emission peak is a critical characteristic required for multicolor analysis.

Data set [4] is described as follows: Absorption spectra in TRIS buffer (pH 7.0) in the presence of 100 mM KCl. It counts as physicochemical. The conditions noted are these: 10 μM, TRIS buffer pH 7.0, 100 mM KCl, FIG. 2. As to the method:
FIG. 2. The absorption spectral comparison of PBFI and Compound 12. PBFI (10 μM) and Compound 12 (10 μM) are dissolved in TRIS buffer (pH 7.0). The absorption spectra are recorded in the presence of 100 mM KCl. […] A longer absorption wavelength minimizes the background caused by naturally occurring biological substances.

Data set [5] can be described thus: Potassium ion response, fluorescence intensity with 60 mM KCl (Fmax) or without KCl (F0). The conditions noted are these: 2.5 μM, Tris-HCl buffer pH 7.0, 60 mM KCl (Fmax) vs no KCl (F0), FIG. 6. As to the method: FIG. 6. Comparisons of Compound 12 and PBFI to potassium ion responses. PBFI (2.5 μM) and Compound 12 (2.5 μM) are added in Tris-HCl buffer (pH 7.0) with 60 mM KCl (Fmax) or without KCl (F0) and their fluorescence intensities are recorded. […] PBFI=Black column; Compound 12=Grey column.

Data set [6] can be described thus: Excitation and fluorescence spectra in TRIS buffer (pH 7.0) in the presence of 100 mM KCl. The conditions noted are these: 2.5 μM, TRIS buffer pH 7.0, 100 mM KCl, FIG. 4. It is filed as physicochemical. As for the experimental part: FIG. 4. The spectral comparison of PBFI and Compound 12. PBFI (2.5 μM) and Compound 12 (2.5 μM) are dissolved in TRIS buffer (pH 7.0). The excitation and fluorescence spectra are recorded in the presence of 100 mM KCl. […] a critical characteristic required for multicolor analysis.

Regarding `COc1ccccc1N1CCOCCOCCN(c2cc(C(=O)O)c(-c3c4cc(F)c(=O)cc-4oc4cc(O)c(F)cc34)cc2OC)CCOCC1` [Compound 8], the “sodium ion response compared with SBFI” value in data set [1] is reported as “much stronger sodium ion response than SBFI”. In data set [2], the “absorption wavelength compared with SBFI” value is “much longer absorption wavelength than SBFI”. The “fluorescence emission peak compared with SBFI” value in data set [3] is “much stronger and sharper fluorescence emission peak”.
For the molecule `COc1ccccc1N1CCOCCOCCN(c2cc(C(=O)O)c(-c3c4cc(F)c(=O)cc-4oc4cc(O)c(F)cc34)cc2OC)CCOCCOCC1` [Compound 12], the “absorption wavelength compared with PBFI” value in data set [4] was “much longer absorption wavelength than PBFI”. In addition, the “potassium ion response compared with PBFI” value in data set [5] is recorded as “much stronger potassium ion response than PBFI”. For the same molecule, the “fluorescence emission compared with PBFI” value in data set [6] is “much stronger and sharper”.
